# In PMC7859335, “Discovery of Diaryl Ether Substituted Tetrahydrophthalazinones as TbrPDEB1 Inhibitors Following Structure-Based Virtual Screening” (Frontiers in Chemistry, 2021):
# Target: T1, TbrPDEB1 (Trypanosoma brucei, UniProt Q8WQX9)
# T1 construct: The TbrPDEB1 catalytic domain phosphodiesterase activity assays were conducted based on a method reported by Sijm et al
# T1 sequence (Q8WQX9 565-918 limits assumed): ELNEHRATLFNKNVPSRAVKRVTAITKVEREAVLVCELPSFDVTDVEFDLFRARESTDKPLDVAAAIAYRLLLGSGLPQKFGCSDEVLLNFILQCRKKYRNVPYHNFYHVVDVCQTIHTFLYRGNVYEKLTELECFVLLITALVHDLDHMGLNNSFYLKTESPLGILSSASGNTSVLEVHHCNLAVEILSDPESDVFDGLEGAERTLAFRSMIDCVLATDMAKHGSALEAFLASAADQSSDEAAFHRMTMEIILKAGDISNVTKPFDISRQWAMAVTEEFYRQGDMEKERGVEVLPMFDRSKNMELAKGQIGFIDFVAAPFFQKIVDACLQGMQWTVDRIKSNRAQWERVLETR
# Assay: TbrPDEB1 catalytic domain phosphodiesterase activity assay (PDELight HTS cAMP kit)
# Assay type: biochemical
# Settings: single point assay at 10 μM inhibitor
# Procedure: The TbrPDEB1 catalytic domain phosphodiesterase activity assays were conducted based on a method reported by Sijm et al. ([2019]) with minor adaptations (Sijm et al., [2019]). The PDELight™ HTS cAMP phosphodiesterase Kit (Lonza, Walkersville, USA) was performed at 25°C in non-binding, low volume 384-well plates (Corning, Kennebunk, ME, USA). […] Single concentration measurements were made at 10 μM inhibitor concentration (triplo measurements/assay, n = 2). Dose-response curves were made in the range 100 μM−10 pM (triplo measurements/assay, n = 3). Compounds were diluted in DMSO (final in-test concentration 1%). Inhibitor dilutions (2.5 μL) were transferred to the 384-well plates, 2.5 μL of PDE in stimulation buffer was added and mixed, 5 μL of cAMP (at 2 × Km up to 20 μM) added and the assay mixture was incubated for 20 min at 300 rpm. […] Then, 5 μL of Lonza Detection reagent (diluted to 80% with reaction buffer) was added and the reaction incubated for 10 min at 300 rpm. Luminescence was read with a Victor3 luminometer using a 0.1 s/well program.
# The Ki values of the inhibitors analyzed are represented as the mean of at least three independent experiments with the associated standard error of the mean (S.E.M.).
row,SMILES,TbrPDEB1 (% inh.)
1,"CCCCNC(=O)c1cccnc1Oc1cc(C2=NN(C(C)C)C(=O)[C@@H]3CC=CC[C@H]23)ccc1OC (relative stereo) [3p, N-Butyl-2-(5-(cis-3-isopropyl-4-oxo-3,4,4a,5,8,8a-hexahydrophthalazin-1-yl)-2-methoxyphenoxy)nicotinamide]",No inhibition
2,"COc1ccc(C2=NN(C(C)C)C(=O)[C@@H]3CC=CC[C@H]23)cc1Oc1ncccc1C(N)=O (relative stereo) [3i, 2-(5-(cis-3-Isopropyl-4-oxo-3,4,4a,5,8,8a-hexahydrophthalazin-1-yl)-2-methoxyphenoxy)nicotinamide]",No inhibition
3,"COc1ccc(C2=NN(C(C)C)C(=O)[C@@H]3CC=CC[C@H]23)cc1Oc1cccc(C(=O)O)n1 (relative stereo) [3h, 6-(5-(cis-3-Isopropyl-4-oxo-3,4,4a,5,8,8a-hexahydrophthalazin-1-yl)-2-methoxyphenoxy)picolinic acid]",No inhibition
4,"COc1ccc(C2=NN(C(C)C)C(=O)[C@H]3CC=CC[C@@H]23)cc1Oc1nccc2sccc12 (relative stereo) [2j, cis-2-Isopropyl-4-(4-methoxy-3-(thieno[3,2-c]pyridin-4-yloxy)phenyl)-4a,5,8,8a-tetrahydrophthalazin-1(2H)-one]",No inhibition
5,"CCCCNC(=O)c1ccc(Oc2cc(C3=NN(C(C)C)C(=O)[C@@H]4CC=CC[C@H]34)ccc2OC)nc1 (relative stereo) [3r, N-Butyl-6-(5-(cis-3-isopropyl-4-oxo-3,4,4a,5,8,8a-hexahydrophthalazin-1-yl)-2-methoxyphenoxy)nicotinamide]",No inhibition
6,"COc1ccc(C2=NN(C(C)C)C(=O)[C@@H]3CC=CC[C@H]23)cc1Oc1cc(C(N)=O)ccn1 (relative stereo) [3j, 2-(5-(cis-3-Isopropyl-4-oxo-3,4,4a,5,8,8a-hexahydrophthalazin-1-yl)-2-methoxyphenoxy)isonicotinamide]",No inhibition
7,"COc1ccc(C2=NN(C(C)C)C(=O)[C@@H]3CC=CC[C@H]23)cc1Oc1cc(C(=O)O)ccn1 (relative stereo) [3f, 2-(5-(cis-3-Isopropyl-4-oxo-3,4,4a,5,8,8a-hexahydrophthalazin-1-yl)-2-methoxyphenoxy)isonicotinic acid]",No inhibition
8,"COc1ccc(C2=NN(C(C)C)C(=O)[C@@H]3CC=CC[C@H]23)cc1Oc1cc(C#N)ccn1 (relative stereo) [3b, 2-(5-(cis-3-Isopropyl-4-oxo-3,4,4a,5,8,8a-hexahydrophthalazin-1-yl)-2-methoxyphenoxy)isonicotinonitrile]",No inhibition
9,"CCCCNC(=O)c1ccnc(Oc2cc(C3=NN(C(C)C)C(=O)[C@@H]4CC=CC[C@H]34)ccc2OC)c1 (relative stereo) [3q, N-Butyl-2-(5-(cis-3-isopropyl-4-oxo-3,4,4a,5,8,8a-hexahydrophthalazin-1-yl)-2-methoxyphenoxy)isonicotinamide]",No inhibition
10,"COc1ccc(C2=NN(C(C)C)C(=O)[C@@H]3CC=CC[C@H]23)cc1Oc1ccc(C(N)=O)cn1 (relative stereo) [3k, 6-(5-(cis-3-Isopropyl-4-oxo-3,4,4a,5,8,8a-hexahydrophthalazin-1-yl)-2-methoxyphenoxy)nicotinamide]",No inhibition
11,"COc1ccc(C2=NN(C(C)C)C(=O)[C@H]3CC=CC[C@@H]23)cc1Oc1nc2ccccc2s1 (relative stereo) [2p, cis-4-(3-(Benzo[d]thiazol-2-yloxy)-4-methoxyphenyl)-2-isopropyl-4a,5,8,8a-tetrahydrophthalazin-1(2H)-one]",No inhibition
12,"COC(=O)c1cccnc1Oc1cc(C2=NN(C(C)C)C(=O)[C@@H]3CC=CC[C@H]23)ccc1OC (relative stereo) [3a, Methyl 2-(5-(cis-3-isopropyl-4-oxo-3,4,4a,5,8,8a-hexahydrophthalazin-1-yl)-2-methoxyphenoxy)nicotinate]",No inhibition
13,"COc1ccc(C2=NN(C(C)C)C(=O)[C@@H]3CC=CC[C@H]23)cc1Oc1ncccc1C(=O)NCc1ccco1 (relative stereo) [3t, N-(Furan-2-ylmethyl)-2-(5-(cis-3-isopropyl-4-oxo-3,4,4a,5,8,8a-hexahydrophthalazin-1-yl)-2-methoxyphenoxy)nicotinamide]",No inhibition
14,"COc1ccc(C2=NN(C(C)C)C(=O)[C@@H]3CC=CC[C@H]23)cc1Oc1cc(C(=O)NCc2ccco2)ccn1 (relative stereo) [3u, N-(Furan-2-ylmethyl)-2-(5-(cis-3-isopropyl-4-oxo-3,4,4a,5,8,8a-hexahydrophthalazin-1-yl)-2-methoxyphenoxy)isonicotinamide]",No inhibition
15,"COc1ccc(C2=NN(C(C)C)C(=O)[C@@H]3CC=CC[C@H]23)cc1Oc1ccc(C(=O)NCc2ccco2)cn1 (relative stereo) [3v, N-(Furan-2-ylmethyl)-6-(5-(cis-3-isopropyl-4-oxo-3,4,4a,5,8,8a-hexahydrophthalazin-1-yl)-2-methoxyphenoxy)nicotinamide]",No inhibition
16,"COc1ccc(C2=NN(C(C)C)C(=O)[C@H]3CC=CC[C@@H]23)cc1Oc1ncnc2sccc12 (relative stereo) [2k, cis-2-Isopropyl-4-(4-methoxy-3-(thieno[2,3-d]pyrimidin-4-yloxy)phenyl)-4a,5,8,8a-tetrahydrophthalazin-1(2H)-one]",No inhibition

# Same assay, conditions: single point assay at 10 μM inhibitor; read-out: TbrPDEB1 (% inh.)
row,SMILES,inhibition at 10 µM [%]
1,"COc1ccc(C2=NN(C(C)C)C(=O)[C@H]3CC=CC[C@@H]23)cc1Oc1ncc(CN2CCOCC2)s1 (relative stereo) [2c, cis-2-Isopropyl-4-(4-methoxy-3-((5-(morpholinomethyl)thiazol-2-yl)oxy)phenyl)-4a,5,8,8a-tetrahydrophthalazin-1(2H)-one]",40 ± 4
2,"COc1ccc(C2=NN(C(C)C)C(=O)[C@@H]3CC=CC[C@H]23)cc1Oc1ccc(C(=O)NCC(N)=O)cn1 (relative stereo) [3n, N-(2-Amino-2-oxoethyl)-6-(5-(cis-3-isopropyl-4-oxo-3,4,4a,5,8,8a-hexahydrophthalazin-1-yl)-2-methoxyphenoxy)nicotinamide]",5 ± 1
3,"COc1ccc(C2=NN(C(C)C)C(=O)[C@H]3CC=CC[C@@H]23)cc1Oc1nccs1 (relative stereo) [2a, cis-2-Isopropyl-4-(4-methoxy-3-(thiazol-2-yloxy)phenyl)-4a,5,8,8a-tetrahydrophthalazin-1(2H)-one]",12 ± 3
4,"COc1ccc(C2=NN(C(C)C)C(=O)[C@@H]3CC=CC[C@H]23)cc1Oc1cccc(C#N)n1 (relative stereo) [3d, 6-(5-(cis-3-Isopropyl-4-oxo-3,4,4a,5,8,8a-hexahydrophthalazin-1-yl)-2-methoxyphenoxy)picolinonitrile]",36 ± 6
5,"COc1ccc(C2=NN(C(C)C)C(=O)[C@@H]3CC=CC[C@H]23)cc1Oc1cnc(C(N)=O)cn1 (relative stereo) [2e, 5-(5-(cis-3-Isopropyl-4-oxo-3,4,4a,5,8,8a-hexahydrophthalazin-1-yl)-2-methoxyphenoxy)pyrazine-2-carboxamide]",18 ± 9
6,"CCOC(=O)c1cnc(Oc2cc(C3=NN(C(C)C)C(=O)[C@@H]4CC=CC[C@H]34)ccc2OC)s1 (relative stereo) [2b, Ethyl 2-(5-(cis-3-isopropyl-4-oxo-3,4,4a,5,8,8a-hexahydrophthalazin-1-yl)-2-methoxyphenoxy)thiazole-5-carboxylate]",11
7,"COc1ccc(C2=NN(C(C)C)C(=O)[C@@H]3CC=CC[C@H]23)cc1Oc1cc(C(=O)NCC(N)=O)ccn1 (relative stereo) [3m, N-(2-Amino-2-oxoethyl)-2-(5-(cis-3-isopropyl-4-oxo-3,4,4a,5,8,8a-hexahydrophthalazin-1-yl)-2-methoxyphenoxy)isonicotinamide]",27
8,"COc1ccc(C2=NN(C(C)C)C(=O)[C@@H]3CC=CC[C@H]23)cc1Oc1cccc(C(=O)NCC(N)=O)n1 (relative stereo) [3o, N-(2-Amino-2-oxoethyl)-6-(5-(cis-3-isopropyl-4-oxo-3,4,4a,5,8,8a-hexahydrophthalazin-1-yl)-2-methoxyphenoxy)picolinamide]",40 ± 1
9,"COc1ccc(C2=NN(C(C)C)C(=O)[C@H]3CC=CC[C@@H]23)cc1Oc1cc(N2CCOCC2)ncn1 (relative stereo) [2f, cis-2-Isopropyl-4-(4-methoxy-3-((6-morpholinopyrimidin-4-yl)oxy)phenyl)-4a,5,8,8a-tetrahydrophthalazin-1(2H)-one]",11 ± 8
